Experimental data reported in PubChem BioAssay (NCI).
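1) Cells in 96-well plates. 2) Compound, 48 h, 5 concentrations. 3) Linear interpolation between surrounding doses. 4) Unreached endpoint = highest concentration. The concentration for 50% growth inhibition is given as GI50. Definition used: TGI = concentration required for complete inhibition of growth.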

Assays:
Test in all cases: NCI tumour cell line growth inhibition, 48 h
NCI-H23 lung = test system: NCI-H23 lung
HCT-15 colon = test system: HCT-15 colon
MALME-3M melanoma = test system: MALME-3M melanoma
SNB-19 CNS = test system: SNB-19 CNS
SK-MEL-5 melanoma = test system: SK-MEL-5 melanoma
SN12C renal = test system: SN12C renal
UO-31 renal = test system: UO-31 renal
K-562 leukemia = test system: K-562 leukemia
SF-539 CNS = test system: SF-539 CNS

| SMILES | TGI (NCI-H23 lung) | TGI (HCT-15 colon) | TGI (MALME-3M melanoma) | TGI (SNB-19 CNS) | TGI (SK-MEL-5 melanoma) | TGI (SN12C renal) | TGI (UO-31 renal) | TGI (K-562 leukemia) | TGI (SF-539 CNS) | GI50 (NCI-H23 lung) | GI50 (HCT-15 colon) | GI50 (SNB-19 CNS) | GI50 (UO-31 renal) | GI50 (K-562 leukemia) | GI50 (MALME-3M melanoma) | GI50 (SK-MEL-5 melanoma) | GI50 (SN12C renal) | GI50 (SF-539 CNS) |
| --- | --- | --- | --- | --- | --- | --- | --- | --- | --- | --- | --- | --- | --- | --- | --- | --- | --- | --- |
| CC(=O)Nc1c(Nc2ccccc2)[nH]c(C)nc1=S | > 100 µM | > 100 µM | > 100 µM | > 100 µM | > 100 µM | > 100 µM | > 100 µM | > 100 µM | – | – | – | – | – | – | – | – | – | – |
| c1ccc2c3c([nH]c2c1)[C@H]1C2CCCCN2CN1CC3 (stereo not given in full) | > 100 µM | > 100 µM | > 100 µM | > 100 µM | > 100 µM | > 100 µM | > 100 µM | > 100 µM | > 100 µM | – | – | – | – | – | – | – | – | – |
| CCCCCCCCCCCCCC[N+](C)(C)CCCCCCCCCCCCCC | 6.13 µM | > 100 µM | – | 10 µM | – | – | > 100 µM | 9.8 µM | – | 2.12 µM | 3.33 µM | 2.38 µM | 4.44 µM | 2.89 µM | – | – | – | – |
| CC1/C(=N\O)CC(c2ccccc2)N(C)C1c1ccccc1 (stereo not given) | > 100 µM | > 100 µM | > 100 µM | > 100 µM | > 100 µM | > 100 µM | > 100 µM | > 100 µM | > 100 µM | – | – | – | – | – | – | – | – | – |
| CN(C)CCNC(=O)c1cccc2cc3c(Cl)cccc3nc12 | 3.23 µM | 6.37 µM | 2.1 µM | 7.32 µM | – | 3.95 µM | > 28.7 µM | 4.04 µM | 4.03 µM | – | – | – | – | – | – | – | – | – |
| CCOC(=O)C(=O)CC1=Nc2ccccc2SC(c2cccc(C)c2)C1 (stereo not given) | 32 µM | 35.7 µM | 31 µM | 34.6 µM | 36.2 µM | 31.2 µM | 28.7 µM | 57.6 µM | 35.1 µM | – | – | – | – | – | – | – | – | – |
| CCc1cccc(C)c1NC(=O)C(=O)CC(=O)c1ccc(Cl)s1 | > 100 µM | > 100 µM | > 100 µM | > 100 µM | – | > 100 µM | > 100 µM | > 100 µM | > 100 µM | – | – | – | – | – | – | – | – | – |
| COC12C=C/C(=C(/C(=O)OCc3ccccn3)C(=O)CCCCCCCCC3(OC)C=C/C(=C(/C(=O)OCc4ccccn4)C(=O)CCCCCCCC1)O3)O2 | 0.689 µM | – | 1.38 µM | > 100 µM | 0.492 µM | 1.21 µM | – | > 100 µM | 3.2 µM | 0.249 µM | – | 1.43 µM | – | 0.331 µM | 0.325 µM | 0.221 µM | 0.356 µM | 0.557 µM |
| O=[N+]([O-])C=C(c1ccc(Cl)cc1)c1ccc(Cl)cc1 | 25.6 µM | 38 µM | – | 36.5 µM | – | 35.6 µM | 27.2 µM | 50.2 µM | 31.5 µM | – | – | – | – | – | – | – | – | – |
| CN(C)C(=N/O)/C(=N\O)N(C)C | > 100 µM | > 100 µM | > 100 µM | > 100 µM | – | > 100 µM | > 100 µM | > 100 µM | > 100 µM | – | – | – | – | – | – | – | – | – |
| CCOP(=O)(OCC)C1CCCOC1=O (stereo not given) | > 100 µM | > 100 µM | > 100 µM | > 100 µM | > 100 µM | > 100 µM | > 100 µM | > 100 µM | > 100 µM | – | – | – | – | – | – | – | – | – |
| c1ccc(C2OC3(CCC[C@H]4C[C@H]43)O[C@H]2c2ccccc2)cc1 (stereo not given in full) | > 100 µM | > 100 µM | 88 µM | > 100 µM | 65.7 µM | > 100 µM | > 100 µM | > 100 µM | > 100 µM | – | – | – | – | – | – | – | – | – |
| CN(C)c1ccc2oc(=O)c3ccccc3c2c1 | 64.2 µM | > 100 µM | > 100 µM | 70.2 µM | > 100 µM | > 100 µM | – | > 100 µM | > 100 µM | – | – | – | – | – | – | – | – | – |
| COc1ccc2c3c([nH]c2c1[N+](=O)[O-])C(C)N(Cc1ccccc1)CC3 (stereo not given) | > 100 µM | > 100 µM | – | > 100 µM | – | > 100 µM | > 100 µM | > 100 µM | 5.24 µM | – | – | – | – | – | – | – | – | – |
| CC1=C(/C=C/C(C)=C/C2CC(N(C)C)=CC(=O)O2)C(C)(C)CCC1 (stereo not given) | 27.8 µM | – | 28.6 µM | 28.6 µM | 19.6 µM | 29.2 µM | 22.7 µM | 19.9 µM | 30.2 µM | – | – | – | – | – | – | – | – | – |
| CC(=O)c1c2c(cc3c1CC1(C3)Cc3cc4c(c(C(C)=O)c3C1)CCC4)CCC2 | > 100 µM | – | > 100 µM | > 100 µM | > 100 µM | > 100 µM | > 100 µM | > 100 µM | > 100 µM | – | – | – | – | – | – | – | – | – |
| CN(c1ccc(C(=O)c2ccc(N(C)S(C)(=O)=O)cc2)cc1)S(C)(=O)=O | > 100 µM | – | > 100 µM | > 100 µM | 78.4 µM | > 100 µM | > 100 µM | > 100 µM | – | – | – | – | – | – | – | – | – | – |
| O=C1C=CC=C/C1=C1/SC(c2ccccc2)=C(O)N1c1ccccc1 | > 100 µM | > 100 µM | > 100 µM | > 100 µM | > 100 µM | > 100 µM | > 100 µM | – | > 100 µM | – | – | – | – | – | – | – | – | – |
| O=S(=O)(O)c1cc(O)c(N=Nc2ccc(O)cc2O)c2ccccc12 | – | > 100 µM | > 100 µM | > 100 µM | > 100 µM | > 100 µM | – | > 100 µM | – | – | – | – | – | – | – | – | – | – |
